How the values were obtained:
[1] = Cytotoxicity by the MTT method, Hela; assay type: cell-based; conditions: human, HeLa cells (human cervical cancer cell line), 36 h incubation with compound
Procedure: (§1) The cytotoxic activity of compounds 1–3 and 5–8 against human cervical cancer cell lines (Hela), human hepatic carcinoma cell lines (BEL-7402), leukemia cell lines (K562), and human gastric cell lines (SGC-7901) was assayed by the MTT method ([Mosmann, 1983]; [Wang et al., 2013]). These cell lines were purchased from Shang Hai Cell Bank of Chinese Academy of Sciences. Hela, BEL-7402, K562, and SGC-7901 cell lines were cultured in RPMI-1640 with 10% FBS under a humidified atmosphere of 5% CO2 and 95% air at 37°C, and 198 μl of the cell suspension was plated in 96-well microtiter plates. After being incubated for 24 h, 2 μl of the test solutions in DMSO was added to each well and further incubated for 36 h. The MTT solution (20 μl, 5 mg/ml in IPMI-1640 medium) was then added to each well and further incubated for 4 h. Finally, the medium containing MTT (150 μl) was gently replaced by DMSO and pipetted to dissolve any formazan crystals formed. Absorbance was then determined on a Multiskan FC photometric microplate reader (Thermo Fisher Scientific) at 570 nm. Adriamycin was used as the positive control drug.

[2] = Cytotoxicity by the MTT method, SGC-7901; assay type: cell-based; conditions: human, SGC-7901 cells (human gastric cell line), 36 h incubation with compound
Procedure: as §1

[3] = Cytotoxicity by the MTT method, BEL-7402; assay type: cell-based; conditions: human, BEL-7042 (printed in table; BEL-7402 in text) cells, 36 h incubation with compound
Procedure: as §1

[4] = target: α-glucosidase (from baker's yeast); experiment: α-Glycosidase inhibitory activity (p-nitrophenyl α-D-glucopyranoside substrate); assay type: biochemical; conditions: α-glucosidase 0.2 U/ml, phosphate buffer pH 6.8, pNPG substrate, 37°C 15 min, absorbance 405 nm
Procedure: A mixture including 25 μl of different compounds (final concentrations of 0.0625, 0.125, 0.25, 0.5, and 1.0 mM), 25 μl of α-glucosidase (0.2 U/ml, from baker’s yeast, Sigma), and 175 μl phosphate buffer (pH 6.8) was left to stand for 10 min at room temperature in a 96-well plate, and then 25 μl of 23.2 mM p-nitrophenyl α-D-glucopyranoside (Sigma-Aldrich) was added and further incubated at 37°C for 15 min. Finally, the absorbance was measured at 405 nm to determine the amount of p-nitrophenol cleaved by the enzyme using a Synergy H1 Hybrid Multi-Mode Microplate Reader (BioTek Instruments, Inc.). The control was prepared by adding phosphate buffer instead of the sample in the same way as the test. The blank was prepared by adding phosphate buffer instead of α-glucosidase using the same method.

[5] = Cytotoxicity by the MTT method, K562; assay type: cell-based; conditions: human, K562 cells (leukemia cell line), 36 h incubation with compound
Procedure: as §1

| Structure (SMILES) | IC50 at 36 h [1] | IC50 at 36 h [2] | IC50 at 36 h [3] | IC50 [4] | IC50 at 36 h [5] |
| --- | --- | --- | --- | --- | --- |
| CC(O)(CCC(=O)O)CCc1cc(C(=O)O)ccc1O (stereo not drawn) [Compound 1, cladoslide A] | > 100 µM | > 100 µM | > 100 µM | 320 ± 10 µM | 13.1 ± 0.08 µM |
| C[C@@H](O)CCCCC[C@H](O)[C@H]1C=CC(=O)O1 [Compound 8, (4R,5S,11R)-iso-cladospolide B] | > 100 µM | > 100 µM | > 100 µM | > 1000 µM | > 100 µM |
| COc1cccc2c1C(=O)c1c(O)c3c(c(O)c1C2=O)C[C@@](O)(C(=O)CO)C[C@@H]3O[C@H]1C[C@H](N)[C@H](O)[C@H](C)O1 [Adriamycin, reference compound] | 0.28 ± 0.01 µM | 0.22 ± 0.01 µM | 0.47 ± 0.01 µM | – | 0.1 ± 0.01 µM |
| C[C@H](O)CCCCC[C@H](O)[C@@H]1C=CC(=O)O1 [Compound 7, (4S,5S,11S)-iso-cladospolide B] | > 100 µM | > 100 µM | > 100 µM | > 1000 µM | > 100 µM |
| CC(=O)NCC(=O)c1c[nH]c2ccccc12 [Compound 5, N-acetyl-β-oxotryptamine] | > 100 µM | > 100 µM | > 100 µM | 170 ± 10 µM | > 100 µM |
| C[C@@H](O)CCCCC[C@H](O)[C@@H]1C=CC(=O)O1 [Compound 6, (4S,5S,11R)-iso-cladospolide B] | > 100 µM | > 100 µM | > 100 µM | > 1000 µM | > 100 µM |
| COC(=O)CCC(C)(O)CCc1cc(C(=O)O)ccc1O (stereo not drawn) [Compound 2, cladoslide B] | > 100 µM | > 100 µM | > 100 µM | > 1000 µM | > 100 µM |
| CC(C)C[C@H](NC(=O)c1nc(C(=O)O)cc2c1[nH]c1ccccc12)C(=O)O [Compound 3, cladospomine] | > 100 µM | > 100 µM | > 100 µM | > 1000 µM | > 100 µM |

Reference: paper PMC8717711, “Metabolites From the Mangrove-Derived Fungus Cladosporium sp. HNWSW-1” (Frontiers in Chemistry, 2021)
